SMILES | melting point [°C]
O=S(=O)(Nc1cccc(CCOCc2csc(-c3ccc(C(F)(F)F)cc3)n2)c1)C(F)(F)F | 117 to 119
COc1ccc(C=Cc2ccccc2)c(-c2ccc(-c3cc(OC)ccc3C=Cc3ccccc3)n2-c2ccc(C)cc2)c1 | 303 to 305
CN(C)CC1(CO)C(O)C(O)C(O)CN1C (stereo not drawn) | 76
CC(C(N)=O)C(O)(Cn1cncn1)c1ccc(Cl)cc1 (stereo not drawn) | 186 to 189
CC(C)NC(=O)c1ccc(F)c2c1CC(N(CCCc1c[nH]c3ccc(F)cc13)C1CCC1)CO2 (stereo not drawn) | 127
Cc1cncn1Cc1ccc(N)cc1 | 124 to 125
Cc1ccc(-c2nc3ccccc3s2)cc1 | 84 to 85
CCN(CC)c1cccc(OCCOS(N)(=O)=O)c1 | 105 to 106
CCOCc1nc2c(N)nc(C)c(C)c2n1NC1CCOCC1 | 120 to 122
CC(C)(C)OC(=O)C(CCCCNC(=O)OCc1ccccc1)NC(=O)C(F)(F)F (stereo not drawn) | 77 to 79
CC(C)(C)OC(=O)Nc1ccc(-c2ccc(F)cc2)cc1NC(=O)CC(=O)c1cccc(C#N)c1 | 177 to 179
CCCCc1nc2ccccc2n1Cc1ccc(-c2ccccc2C2SC(=O)NC2=O)cc1 (stereo not drawn) | 162 to 163
O=C1c2c(Cl)cccc2OCN1CCO[N+](=O)[O-] | 98 to 100
O=C1CO[C@@H]2c3ccccc3OCC[C@H]2N1 (relative stereo) | 246 to 248
N#CC(C#N)=C1Sc2nc3ccc(C(F)(F)F)cc3nc2S1 | 197 to 199
Clc1ccc(Oc2cncc3sc(-c4ccco4)cc23)cc1 | 75 to 77
NC(=S)CCc1ccc([N+](=O)[O-])cc1 | 157 to 158
O=c1[nH]cnc2ccc(F)cc12 | 252 to 255
O=S(=O)(O)c1cc(NCc2c(F)c(F)c(C(F)(F)F)c(F)c2F)ccc1O | > 300
CC(=O)NC[C@H]1CN(c2ccc(N3C[C@H]4CN(C(=O)OCc5ccccc5)C[C@H]4C3)cc2)C(=O)O1 | 135 to 140
C[C@@H](C(=O)c1ccccc1)[C@H](NC(=O)C(F)(F)F)C(=O)OC(C)(C)C | 127 to 128

SMILES | melting point [°C]
CC(OCc1ccc2ccccc2c1)(C(N)=O)C(F)(F)F (stereo not drawn) | 111 to 112
O=Cc1cnc(-c2ccc(C(CC3CCOCC3)c3ccc(S(=O)(=O)C4CC4)cc3)[nH]2)s1 (stereo not drawn) | 175 to 176
O[C@H](c1ccc(F)cc1)[C@H](Cc1ccc(C(F)(F)F)cc1)NCc1cccc2ccccc12 (racemic) | 94 to 95
O=[N+]([O-])c1cccc(/C=C/c2ccc3ccccc3n2)c1 | 145 to 147
CCCCCn1cc(C(=O)O)c2ccc(Cl)cc21 | 152 to 154
O=S(=O)(NC1CCC(O)CC1)c1ccc(Cl)cc1 (stereo not drawn) | 138 to 142
CC(C)(C)c1ccc(OC2CN(C(c3ccccc3)c3ccccc3)C2)cc1 | 126 to 127
N[C@H]1C[C@H]2[C@H](C(=O)O)[C@H]2[C@]1(N)C(=O)O | > 250
COC(=O)[C@H](CSC(=O)N(C)C)NC(C)=O | 119 to 121
COC(=O)[C@@H]1C[C@H](C(=O)OC(C)(C)C)N(C(=O)CNC(=O)OC(C)(C)C)[C@@H]1c1ccccc1F (racemic) | 142
CC(C)(C(N)=O)c1ccc(Br)cc1 | 139 to 141
CCC[C@H]1CC[C@H](c2ncc(C#N)cn2)CC1 | 74
CC(=O)OC1C(CO)OC(n2cnc3c(N)ncnc32)C1O (stereo not drawn) | 195 to 201
Clc1cc(CCc2ccccn2)c2oc(-c3cccc4cccnc34)nc2c1 | 110 to 111
CCCCCCCCCCCCc1c[nH]c(C(=O)O)c1 | 152 to 153
c1ccc(N(c2ccc3c(c2)Oc2ccc(N(c4ccccc4)c4cccc5ccccc45)cc2O3)c2cccc3ccccc23)cc1 | 315
CC(C)(C)C(O)C(Oc1ccc(Cl)cc1)n1ccnc1 (stereo not drawn) | 145 to 147
Cc1nc2cc(C(=O)NC(C)C)c(NC(=O)c3cc(C(F)(F)F)nn3-c3ncccc3Cl)c(Cl)c2n1C | 248 to 250
CC(c1oc2ccccc2c(=O)c1-c1cccc(F)c1)n1nc(-c2ccc(O)c(F)c2)c2c(N)ncnc21 (stereo not drawn) | 244 to 247
Cc1c(Br)c(C#N)nn1C | 92 to 94

The next lines start with the values.

melting point [°C] | SMILES
88 to 89 | N#Cc1cc(Br)c(OC(=O)OCOC(=O)COc2ccc(Cl)cc2Cl)c(Br)c1
90 to 91 | COc1ccc(CCNc2nc(Cl)ccc2N)cc1OC
222 | Cc1ccc2c(=O)nc(-c3cccc(CCC(=O)O)n3)sc2c1
169 to 170 | CCC(=O)NCCc1c(-c2ccccc2)nn2ccc3c(c12)CCO3
160 to 161 | COc1cc(CCCS2(OCC(=O)O)C=CN=C2)cc(OCc2ccc3ccccc3c2)c1 (stereo not drawn)
237 to 238 | O=C(O)CCc1oc(NC2CCCCC2)nc1-c1ccc(Cl)cc1
134 to 137 | O=C1C2=C(CCCC2)C(=O)N1c1cc(OCC2=CCCSC2)c(Cl)cc1F
141 | CC(C)(C)OC(=O)NNC(=O)C=Cc1cc(=O)c(OCc2ccccc2)c[nH]1
69 to 71 | CCCCCCCOc1cc2c(cc1C(C)=O)C(C)(C)CCS2
72 to 74 | CC(=O)OCC(C(=O)OC(C)(C)C)C(=O)c1ccccc1 (stereo not drawn)
84 | CC1CCN(c2ccc([N+](=O)[O-])cc2C(=O)c2ccccc2Cl)CC1
> 300 | Cc1nn(-c2ccccn2)c2[nH]c3ccc(S(C)(=O)=O)cc3c(=O)c12
150 | CSc1c(C(=O)O)ccc(Cl)c1F
153 to 155 | CCCc1nc(OC)c(NC(=O)N2CCN(c3cccc(O)c3)CC2)cc1C
235 to 236 | COc1cc(NC(C)=O)c(Cl)cc1-c1nn(-c2ccc(C(F)(F)F)cc2)c(=O)o1
157 to 158 | CCOC(=O)C1=C(NC(=O)Nc2cc(C(=O)OC(C)C)c(Br)cc2Br)CCC1
202 | COc1ccc2oc3ccccc3c2c1C(=O)Nc1cc(Cl)ccc1Cl
150 to 151 | C=CC(=O)N1CCc2cc(OC)c(OC)cc2C12CCC(C(=O)OCC)(C(=O)OCC)CC2C1c2cc(OC)c(OC)cc2CCN1CC (stereo not drawn)
105 to 107 | COc1ccc2c3c(c4cc(OC)c(OC)cc4c2c1)C[C@H](CO)N(C(=O)OC(C)(C)C)C3

melting point [°C] | SMILES
122 to 123 | CC(C)=CCOc1ccc(C(=O)C=Cc2ccc(C(F)(F)F)cc2)c(O)c1
173 to 174 | CCN1C(=O)C(=O)N(c2cc(Cl)ccc2C)C1=S
118 | CC1(CCCN2CC[C@H](CNC(=O)c3cc(Cl)c(N)c4c3OCC4)[C@H](O)C2)OCCO1 (relative stereo)
172 to 173 | Cc1nn(-c2ccccn2)c2[nH]c3c(c(=O)c12)CCCC3
171 to 172 | Cn1ncc(/C=C/C(=O)Nc2ccc(OCc3cscn3)cc2)c1-c1ccc(F)cc1
136 to 137 | COC1(c2cc(O)cc(F)c2)CCOC1 (stereo not drawn)
229 to 232 | NS(=O)(=O)c1cc2cc3c(cc2n1S(=O)(=O)c1ccccc1)OCO3
> 260 | Cn1cccc1C(=O)NCc1cccc2c1C(=O)N(C1CCC(=O)NC1=O)C2=O (stereo not drawn)
168 to 171 | CCCC#Cc1cc(Cl)cc2c1OC(C(F)(F)F)C(C(=O)O)=C2 (stereo not drawn)
194 to 198 | O=C1CN(c2cccc(Cl)c2)C(=O)N1S(=O)(=O)c1ccc2ccccc2c1
213 to 214 | Cc1cccnc1C(CO)COc1ccc(CC2SC(=N)NC2=O)cc1 (stereo not drawn)
136 to 138 | COC(=O)Nc1cccc(C)c1CNc1cccn2c(C)c(C)nc12
163 to 164 | CCOC(=O)C1=C(C)NC(C)=C(C(=O)OC)C1c1cc([N+](=O)[O-])ccc1Cl (stereo not drawn)
116 to 123 | Cc1cc(Br)c2ncn([C@H](C)[C@](O)(Cn3cncn3)c3ccc(F)cc3F)c(=O)c2c1
306 to 308 | C=CCn1c(=O)c2cc(C(=O)O)cn2c2ccccc21
155 to 157 | CC(=O)Nc1ccc(-c2cc3cccc(C(=O)OCCN4CCCCC4)c3o2)cc1
236 to 238 | COC(=O)c1cc(O)cc2cc(-c3ccc(O)cc3)oc12
179 to 185 | Brc1ccc2c(c1)Cc1cc(I)ccc1-2
102 | O=C(c1ccccc1)N1CC(=O)N(CCc2ccccc2)C(=O)C1

melting point [°C] | SMILES
201 to 203 | NC1CCCC(C(=O)N2CCC(c3[nH]nc4c3C(=O)c3c(NC(=O)NN5CCOCC5)cccc3-4)CC2)C1 (stereo not drawn)
264 to 266 | COc1cc2c(cc1OC)-c1ncc(C(=O)O)c(=O)n1CC2
115 to 117 | Cc1ccc(N2CCN3C(=O)CCC3C2=O)cc1 (stereo not drawn)
62 to 68 | CC(C)CCn1c(=O)c2c(N3CCN(C)CC3)cc(Cl)cc2n(Cc2ccccc2)c1=O
196 to 197 | CCc1nn(C2CCCCC2)c2cc(C(=O)O)ccc12
256 to 258 | Cn1c(=O)nc(-c2ccccc2)c2ccsc21
200 to 210 | COc1ccc(Sc2nc(C)n(Cc3cc4c(cc3Cl)OCO4)c2C(=O)O)cc1
234 to 237 | CC(=O)OCC1CCn2c(c(C3=C(c4coc5ccccc45)C(=O)NC3=O)c3ccccc32)C1 (stereo not drawn)
146 to 148 | COCOc1c(OC)cc(/C=C/C(=O)/C=C/c2cc(OC)c(OCOC)c(OC)c2)cc1OC
145 to 146 | CCOc1cc(OCc2nc(-c3ccco3)oc2C)ccc1CCl
208 to 210 | CCCCc1nc2c(N)nc3c(c2n1CCNC(=O)c1cc(C(C)(C)C)c(O)c(C(C)(C)C)c1)NCCC3
28 to 30 | CCOC(=O)c1ccccc1-c1cc(-c2cccc(C(F)(F)F)c2)no1
114 to 116 | COc1ccc(C(C)(O)c2sc(C)nc2C)cc1 (stereo not drawn)
172 to 174 | N=C(Cl)c1c(Cc2ccc(Cl)cc2)nc2ccc(I)cc2c1O
240 to 241 | Nc1c(-c2ccc(Cl)cc2)nc2ccc(Cl)cc2c1C(=O)O
270 to 280 | Cc1c(-c2ccccc2)c2c(c3c1[nH]c1ccc(O)cc13)C(=O)NC2=O
117 to 119 | CCC(CC)N(Cc1ccc(C(=O)OC)cn1)S(=O)(=O)c1ccc(F)cc1
104 to 105 | COc1ccc(OC)c(CN2CCc3cc(O)c(OC)cc3C2)c1
135 to 136 | CC(=O)NCc1ccc(CN2CCN(c3ccccc3)CC2)cc1[N+](=O)[O-]
